Measured values published in PubChem BioAssay (NCI).
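These data come from cells grown in 96-well plates and exposed to compound for 48 hours at five concentrations. TGI marks complete inhibition of growth.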

Columns and labels:
Assay in all cases: NCI anticancer screen, dose series, 48 h
DMS 114 small cell lung = tested on: DMS 114 small cell lung
RXF-631 renal = tested on: RXF-631 renal
DMS 273 small cell lung = tested on: DMS 273 small cell lung
XF 498 CNS = tested on: XF 498 CNS
HOP-18 NSCLC = tested on: HOP-18 NSCLC
KM20L2 colon = tested on: KM20L2 colon

| Compound | TGI (DMS 114 small cell lung) [µM] | TGI (RXF-631 renal) [µM] | TGI (DMS 273 small cell lung) [µM] | TGI (XF 498 CNS) [µM] | TGI (HOP-18 NSCLC) [µM] | TGI (KM20L2 colon) [µM] |
| --- | --- | --- | --- | --- | --- | --- |
| COc1cc(OC)c2c(O)cc(CC(C)O)cc2c1 (stereo not given) | > 100 | > 100 | > 100 | > 100 | > 100 | > 100 |
| Cc1ccc(C(=O)N(C2CCCCC2)C2CCCCC2)cc1N=NN(C)C |  |  | 31.4 |  |  |  |
| O=C(c1ccc(Cl)cc1)c1ccc(OCC(=O)N2CCN(c3ccccc3)CC2)cc1 | > 100 |  |  | > 100 | > 100 | > 100 |
| CCCCOC(=O)CNC(=O)OCCCCC#CC#CCCCCOC(=O)NCC(=O)OCCCC | > 100 |  | > 100 | > 100 | > 100 | > 100 |
| COC(=O)C12Oc3ccc(-c4ccc5c(c4O)C(=O)C4=CCC(C)C(O)C4(C(=O)OC)O5)c(O)c3C(=O)C1=CCC(C)C2O (stereo not given) | 3.81 | 4.81 | 3.25 |  | 6.56 | 2.93 |
| CCCCCc1cc(OC(=O)c2c(O)cc(OC)cc2CCCCC)cc(O)c1C(=O)O | 33.9 |  | 32.4 | 32.5 |  | 33.3 |
